Test results: patent publication US20100004275A1, “AGENT FOR SUPPRESSING DEVELOPMENT OF TOLERANCE TO NARCOTIC ANALGESICS” (KYOTO UNIVERSITY, priority 2004, published 2010)

Tests used:
ddY mice = assay: Tail-flick test, tolerance to morphine analgesic induced by repeated morphine, with V1 receptor antagonist i.c.v. (Example 2); assay type: in vivo; conditions: male ddY mice; antagonist 0.5, 5 or 10 ng i.c.v. + morphine hydrochloride 10 mg/kg s.c. twice a day for 5 days; 1st, 3rd and 5th days; FIGS. 2 to 4
Procedure: (§1) % MPE=100×[(Measured value after treatment−Measured value before treatment)[…](Cut-off value−Measured value before treatment)]
Male ddY mice (5- or 6-week old) were intracerebroventricularly (i.c.v.) given with 5 μl of physiological saline or a V1 receptor antagonist (0.5, 5 or 10 ng), and immediately after the administration, the mice were subcutaneously given with 10 mg/kg of morphine hydrochloride, which was repeated twice a day for 5 days to induce tolerance to morphine analgesic. The analgesic effect was evaluated by the tail-flick test on 1st, 3rd and 5th days after the administration on the basis of intensity of analgesic effect using % MPE and AUC (area under the time-reaction curve, Area Under the Curve). As the V1 receptor antagonist, the following three types of antagonists were used.

[1] = test system: V1a receptor knockout mice, V1b receptor knockout mice, and control mice; assay: Tail-flick test, development of tolerance to morphine in V1a/V1b receptor knockout and control mice (Example 1); assay type: in vivo; conditions: 10 mg/kg s.c. once a day for 15 days, FIG. 1
Procedure: V1a receptor knockout mice (Neuroscience Letters, 356, pp. 195-198, 2004), V1b receptor knockout mice (J. Clin. Invest., 113, pp. 302-309, 2004), and control mice (body weight: about 30 g) were subcutaneously (s.c.) given with 10 mg/kg of morphine hydrochloride once a day, which was repeated for 15 days. The analgesic effect was evaluated by the tail-flick test on 1st, 5th, 9th, 12th and 15th days after the administration on the basis of the maximal possible effect (% MPE), which represents analgesic intensity and is calculated in accordance with the following equation.
as §1

Compound | effect on development of tolerance to morphine (% MPE and AUC) (ddY mice) | development of tolerance to analgesic effect (% MPE) ([1]; V1a receptor knockout mice) | development of tolerance to analgesic effect (% MPE) ([1]; V1b receptor knockout mice) | development of tolerance to analgesic effect (% MPE) ([1]; control mice)
deamino-Pen, O-Me-Tyr, Arg]-vasopressin [dPenTyr(Me)AVP] | suppressed the development of tolerance | – | – | –
[β-mercapto-β,β-cyclopentamethylenepropionyl, O-Me-Tyr, Arg]-vasopressin [d(CH2)5Tyr(Me)AVP] | had no effect on the tolerance development | – | – | –
[phenylacetyl, O-Me-D-Try, Arg, Lys]-vasopressin amide [PhAcALVP] | had no effect on the tolerance development | – | – | –
CN1CC[C@]23c4c5ccc(O)c4O[C@H]2[C@@H](O)C=C[C@H]3[C@H]1C5.Cl [morphine, morphine hydrochloride] | – | tolerance to morphine was developed | remarkable resistance against tolerance to morphine was observed | tolerance to morphine was developed
